Values after ≈ are worked out from the molar mass of the structure shown. Active and inactive are the calls of the source. The rule behind the calls is not given here.
Assays:
[1] = Solubility of the compound in phosphate buffer of pH 7.4 after 24 hrs by RP-HPLC analysis; format: physicochemical; conditions: for solubility at 24 h: phosphate buffer, pH 7.4
HCT-116 [2] = experiment: Cytotoxicity against human HCT116 cells assessed as reduction in cell viability after 48 hrs by MTT assay; format: functional, cell-based; conditions: HCT-116, 48 h
HCT-15 = experiment: Cytotoxicity against human HCT15 cells assessed as reduction in cell viability after 48 hrs by MTT assay; format: functional, cell-based; conditions: HCT-15, 48 h
[3] = Solubility of the compound in phosphate buffer of pH 2 after 24 hrs by RP-HPLC analysis; format: physicochemical
HCT-116 [4] = experiment: Induction of apoptosis in human HCT116 cells at 100 nM after 72 hrs by Annexin V-FITC staining-based flow cytometric analysis; format: functional, cell-based
Aurora kinase A = target: T1, Aurora kinase A (Homo sapiens, UniProt O14965); experiment: Inhibition of recombinant Aurora A (unknown origin) using TAMRA-PKAtide as substrate after 30 mins by fluorescence polarization assay
T1 sequence (O14965 whole entry): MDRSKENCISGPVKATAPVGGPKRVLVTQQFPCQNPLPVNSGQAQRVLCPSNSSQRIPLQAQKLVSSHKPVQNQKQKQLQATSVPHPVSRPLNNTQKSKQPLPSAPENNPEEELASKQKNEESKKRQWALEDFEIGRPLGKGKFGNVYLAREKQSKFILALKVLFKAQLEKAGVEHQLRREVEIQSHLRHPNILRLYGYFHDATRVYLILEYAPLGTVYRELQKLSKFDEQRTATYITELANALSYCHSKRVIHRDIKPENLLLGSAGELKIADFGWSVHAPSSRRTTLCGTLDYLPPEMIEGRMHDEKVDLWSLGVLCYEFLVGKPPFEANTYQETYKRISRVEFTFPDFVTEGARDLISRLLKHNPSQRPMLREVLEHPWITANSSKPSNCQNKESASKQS

HCT-116 [5] = experiment: Inhibition of cytokinesis in human HCT116 cells at 1 uM after 24 hrs by propidium iodide/RNase staining-based flow cytometric analysis; format: functional, cell-based
HCT-116 [6] = experiment: Induction of apoptosis in human HCT116 cells at 1 uM after 72 hrs by Annexin V-FITC/propidium iodide staining-based flow cytometric analysis; format: functional, cell-based
Aurora kinase B [7] = target: T2, Aurora kinase B (Homo sapiens, UniProt Q96GD4); experiment: Inhibition of recombinant Aurora B (unknown origin) using TAMRA-PKAtide as substrate after 1 hr by fluorescence polarization assay
T2 sequence (Q96GD4 whole entry): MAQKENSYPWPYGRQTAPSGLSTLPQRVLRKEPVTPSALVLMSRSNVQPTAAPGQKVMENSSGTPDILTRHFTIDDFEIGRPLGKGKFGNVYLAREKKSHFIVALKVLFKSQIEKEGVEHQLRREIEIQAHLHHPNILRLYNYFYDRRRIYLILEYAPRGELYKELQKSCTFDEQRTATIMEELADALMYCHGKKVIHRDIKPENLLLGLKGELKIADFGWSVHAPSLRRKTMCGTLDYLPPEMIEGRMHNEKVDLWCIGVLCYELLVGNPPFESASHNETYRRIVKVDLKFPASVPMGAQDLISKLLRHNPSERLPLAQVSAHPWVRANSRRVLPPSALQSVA

HCT-116 [8] = experiment: Inhibition of cytokinesis in human HCT116 cells at 100 nM after 24 hrs by propidium iodide/RNase staining-based flow cytometric analysis; format: functional, cell-based
Aurora kinase B [9] = target: T2, Aurora kinase B; experiment: Inhibition of Aurora B phosphorylation at Thr232 residue in human HCT116 cells over 100 nM after 3 hrs by Western blot method; format: cell-based

| Compound | solubility at 24 h [1] [µM] | IC50 (HCT-116 [2]) [µM] | IC50 (HCT-15) [µM] | solubility at 24 h [3] [µM] | other results |
| --- | --- | --- | --- | --- | --- |
| CCCCS(=O)(=O)Nc1cc(C(C)C)c2sc(NC(=O)NC)c(C(N)=O)c2c1 | 4.6 (≈ 1.96 µg/mL) | 0.95 | 4.04 | 4.3 (≈ 1.83 µg/mL) |  |
| CC(C)c1cc(NS(=O)(=O)C2CCCCC2)cc2c(C(N)=O)c(NC(=O)C3CC3)sc12 |  | 9.98 |  |  |  |
| CCS(=O)(=O)Nc1cc(C(C)C)c2sc(NC(=O)NC)c(C(N)=O)c2c1 | 13.6 (≈ 5.42 µg/mL) | 0.6 | 4.98 | 11.4 (≈ 4.54 µg/mL) | Activity (HCT-116 [4]): inactive; IC50 (Aurora kinase A): 0.024 µM; Cytokinesis inhibition (active/inactive call) (HCT-116 [5]): Active; Activity (HCT-116 [6]): inactive; IC50 (Aurora kinase B [7]): 0.038 µM; Cytokinesis inhibition (active/inactive call) (HCT-116 [8]): Active |
| CNC(=O)Nc1sc2c(C(C)C)cc(NS(=O)(=O)c3ccc(C)cc3)cc2c1C(N)=O |  | 3.8 |  |  |  |
| CNC(=O)Nc1sc2c(C(C)C)cc(NS(=O)(=O)C(C)C)cc2c1C(N)=O |  | 2.58 | 8.66 |  |  |
| CNC(=O)Nc1sc2c(C(C)C)cc(NS(=O)(=O)c3ccco3)cc2c1C(N)=O | 6.7 (≈ 2.92 µg/mL) | 1.3 |  | 3.3 (≈ 1.44 µg/mL) |  |
| CNC(=O)Nc1sc2c(C(C)C)cc(NS(=O)(=O)c3cccc(C)c3)cc2c1C(N)=O | 3.6 (≈ 1.66 µg/mL) | 0.47 | 1.68 | 2.6 (≈ 1.2 µg/mL) | Activity (HCT-116 [4]): Active; IC50 (Aurora kinase A): 0.095 µM; Cytokinesis inhibition (active/inactive call) (HCT-116 [5]): Active; Activity (HCT-116 [6]): Active; IC50 (Aurora kinase B [7]): 0.046 µM; Cytokinesis inhibition (active/inactive call) (HCT-116 [8]): Active |
| CC(C)c1cc(NS(C)(=O)=O)cc2c(C(N)=O)c(NC(=O)C3CC3)sc12 |  | 1.39 |  |  |  |
| O=C(O)c1ccc(Nc2ncc3c(n2)-c2ccc(Cl)cc2C(c2c(F)cccc2F)=NC3)cc1 [MLN-8054] | 98.2 (≈ 46.9 µg/mL) | 0.85 |  | 5.8 (≈ 2.77 µg/mL) | inhibition (Aurora kinase B [9]): Active; Activity (HCT-116 [4]): inactive; Activity (HCT-116 [6]): inactive |
| CNC(=O)Nc1sc2c(C3CC3)cc(NS(=O)(=O)c3ccn(C)n3)cc2c1C(N)=O | 4.8 (≈ 2.15 µg/mL) | 1.19 |  | 3.7 (≈ 1.66 µg/mL) |  |
| CC(C)c1cc(NS(=O)(=O)c2cccs2)cc2c(C(N)=O)c(NC(=O)C3CC3)sc12 |  | 4.58 |  |  |  |
| CCCNS(=O)(=O)Nc1cc(C(C)C)c2sc(NC(=O)NC)c(C(N)=O)c2c1 |  | 0.41 | 4.71 |  | Activity (HCT-116 [4]): inactive; IC50 (Aurora kinase A): 0.021 µM; Cytokinesis inhibition (active/inactive call) (HCT-116 [5]): Active; Activity (HCT-116 [6]): inactive; IC50 (Aurora kinase B [7]): 0.011 µM; Cytokinesis inhibition (active/inactive call) (HCT-116 [8]): Active |
| Cc1cc(Nc2cc(N3CCN(C)CC3)nc(Sc3ccc(NC(=O)C4CC4)cc3)n2)n[nH]1 [TOZASERTIB] |  | 0.45 | 1.23 |  | Cytokinesis inhibition (active/inactive call) (HCT-116 [5]): Active; Cytokinesis inhibition (active/inactive call) (HCT-116 [8]): Active |
| CNC(=O)Nc1sc2c(C(C)C)cc(NS(=O)(=O)c3ccc(Cl)cc3)cc2c1C(N)=O |  | 7 |  |  |  |
| CNC(=O)Nc1sc2c(C)cc(NS(=O)(=O)c3ccco3)cc2c1C(N)=O | 3.9 (≈ 1.59 µg/mL) | 0.95 | 1.51 | 1.1 (≈ 0.449 µg/mL) |  |
| CNC(=O)Nc1sc2c(C(C)C)cc(NS(=O)(=O)c3cccc(Cl)c3)cc2c1C(N)=O |  | 1.02 | 5.66 |  |  |
| CCCS(=O)(=O)Nc1cc(C(C)C)c2sc(NC(=O)NC)c(C(N)=O)c2c1 | 3 (≈ 1.24 µg/mL) | 0.77 | 4.44 | 2.8 (≈ 1.16 µg/mL) |  |

| Compound | solubility at 24 h [1] [µM] | IC50 (HCT-116 [2]) [µM] | IC50 (HCT-15) [µM] | solubility at 24 h [3] [µM] | other results |
| --- | --- | --- | --- | --- | --- |
| Cc1cc(Nc2cc(N3CCN(C)CC3)nc(Sc3ccc(NC(=O)C4CC4)cc3)n2)[nH]n1 [TOZASERTIB] |  |  |  | 120 (≈ 55.8 µg/mL) | solubility ([1]; buffer, pH 7.4, 24 h): 120 µM (≈ 55.8 µg/mL) |
| CNC(=O)Nc1sc2c(C(C)C)cc(NS(=O)(=O)c3ccccc3)cc2c1C(N)=O | 1.7 (≈ 0.759 µg/mL) | 0.31 | 0.89 | 1.3 (≈ 0.581 µg/mL) | Activity (HCT-116 [4]): Active; IC50 (Aurora kinase A): 0.037 µM; Cytokinesis inhibition (active/inactive call) (HCT-116 [5]): Active; Activity (HCT-116 [6]): Active; IC50 (Aurora kinase B [7]): 0.035 µM; Cytokinesis inhibition (active/inactive call) (HCT-116 [8]): Active |
| CNC(=O)Nc1sc2c(C)cc(NS(=O)(=O)c3cccs3)cc2c1C(N)=O | 12.8 (≈ 5.43 µg/mL) | 0.79 | 2.19 | 5.3 (≈ 2.25 µg/mL) |  |
| CC(C)c1cc(NS(=O)(=O)c2ccccc2)cc2c(C(N)=O)c(NC(=O)C3CC3)sc12 |  | 1.39 |  |  | IC50 (Aurora kinase A): 0.827 µM; IC50 (Aurora kinase B [7]): 0.417 µM |
| CNC(=O)Nc1sc2c(C(C)C)cc(NS(C)(=O)=O)cc2c1C(N)=O |  | 1.47 | 4.18 |  |  |
| CNC(=O)Nc1sc2c(C(C)C)cc(NS(=O)(=O)c3cc(C)cs3)cc2c1C(N)=O | 1.4 (≈ 0.653 µg/mL) | 0.34 | 1.68 | 1.6 (≈ 0.747 µg/mL) | Activity (HCT-116 [4]): Active; IC50 (Aurora kinase A): 0.08 µM; Cytokinesis inhibition (active/inactive call) (HCT-116 [5]): Active; Activity (HCT-116 [6]): Active; IC50 (Aurora kinase B [7]): 0.048 µM; Cytokinesis inhibition (active/inactive call) (HCT-116 [8]): Active |
| CNC(=O)Nc1sc2c(C(C)C)cc(NS(=O)(=O)c3ccn(C)n3)cc2c1C(N)=O | 6.2 (≈ 2.79 µg/mL) | 0.56 | 6.13 | 4.2 (≈ 1.89 µg/mL) | Activity (HCT-116 [4]): Active; IC50 (Aurora kinase A): 0.005 µM; Cytokinesis inhibition (active/inactive call) (HCT-116 [5]): Active; Activity (HCT-116 [6]): Active; IC50 (Aurora kinase B [7]): 0.017 µM; Cytokinesis inhibition (active/inactive call) (HCT-116 [8]): Active |
| CNC(=O)Nc1sc2c(C(C)C)cc(NS(=O)(=O)c3ccccc3Cl)cc2c1C(N)=O |  | 3.41 |  |  |  |
| CCS(=O)(=O)Nc1cc(C(C)C)c2sc(NC(=O)C3CC3)c(C(N)=O)c2c1 |  | 2.36 |  |  |  |
| CNC(=O)Nc1sc2c(C(C)C)cc(NS(=O)(=O)c3ccccc3C)cc2c1C(N)=O |  | 1.77 |  |  |  |
| Cc1cccc(S(=O)(=O)Nc2cc(C(C)C)c3sc(NC(=O)C4CC4)c(C(N)=O)c3c2)c1 |  | 9.01 |  |  |  |
| CNC(=O)Nc1sc2c(C)cc(NS(=O)(=O)c3ccc(C)s3)cc2c1C(N)=O |  | 2.36 |  |  |  |
| CNC(=O)Nc1sc2c(C)cc(NS(=O)(=O)c3ccn(C)n3)cc2c1C(N)=O |  | 9.78 | > 10 |  |  |
| CC(C)c1cc(NS(=O)(=O)c2ccn(C)n2)cc2c(C(N)=O)c(NC(=O)C3CC3)sc12 |  | 0.76 | 1.26 |  |  |
| CNC(=O)Nc1sc2c(C(C)C)cc(NS(=O)(=O)c3ccc(C)s3)cc2c1C(N)=O |  | 2.33 | 4.1 |  |  |
| CNC(=O)Nc1sc2c(C3CC3)cc(NS(=O)(=O)c3cccs3)cc2c1C(N)=O | 1.1 (≈ 0.496 µg/mL) | 1.53 |  |  |  |
| CCCS(=O)(=O)Nc1cc(C(C)C)c2sc(NC(=O)C3CC3)c(C(N)=O)c2c1 |  | 6.2 |  |  |  |
